Measured values: patent US8134001B2, “Spiroindolinone derivatives” (Hoffmann-La Roche Inc., priority 2007, dated 2012)

Biological target: interaction between p53 and MDM2 proteins (recombinant GST-tagged MDM2 / biotinylated p53 peptide) (Homo sapiens, UniProt Q00987)
Assay: HTRF assay of inhibition of the p53-MDM2 interaction
Type: binding
Settings: 0.2% BSA
Experimental: The ability of the compounds to inhibit the interaction between p53 and MDM2 proteins was measured by an HTRF (homogeneous time-resolved fluorescence) assay in which recombinant GST-tagged MDM2 binds to a peptide that resembles the MDM2-interacting region of p53 (Lane et al.). Binding of GST-MDM2 protein and p53-peptide (biotinylated on its N-terminal end) is registered by the FRET (fluorescence resonance energy transfer) between Europium (Eu)-labeled anti-GST antibody and streptavidin-conjugated Allophycocyanin (APC).
Test is performed in black flat-bottom 384-well plates (Costar) in a total volume of 40 uL containing: 90 nM biotinylate peptide, 160 ng/ml GST-MDM2, 20 nM streptavidin-APC (PerkinElmerWallac), 2 nM Eu-labeled anti-GST-antibody (PerkinElmerWallac), 0.2% bovine serum albumin (BSA), 1 mM dithiothreitol (DTT) and 20 mM Tris-borate saline (TBS) buffer as follows: Add 10 uL of GST-MDM2 (640 ng/ml working solution) in reaction buffer to each well. Add 10 uL diluted compounds (1:5 dilution in reaction buffer) to each well, mix by shaking. Add 20 uL biotinylated p53 peptide (180 nM working solution) in reaction buffer to each well and mix on shaker. Incubate at 37° C. for 1 h. Add 20 uL streptavidin-APC and Eu-anti-GST antibody mixture (6 nM Eu-anti-GST and 60 nM streptavidin-APC working solution) in TBS buffer with 0.2% BSA, shake at room temperature for 30 minutes and read using a TRF-capable plate reader at 665 and 615 nm (Victor 5, Perkin ElmerWallac). If not specified, the reagents were purchased from Sigma Chemical Co.

Sequence of interaction between p53 and MDM2 proteins (recombinant GST-tagged MDM2 / biotinylated p53 peptide) (Q00987 whole entry): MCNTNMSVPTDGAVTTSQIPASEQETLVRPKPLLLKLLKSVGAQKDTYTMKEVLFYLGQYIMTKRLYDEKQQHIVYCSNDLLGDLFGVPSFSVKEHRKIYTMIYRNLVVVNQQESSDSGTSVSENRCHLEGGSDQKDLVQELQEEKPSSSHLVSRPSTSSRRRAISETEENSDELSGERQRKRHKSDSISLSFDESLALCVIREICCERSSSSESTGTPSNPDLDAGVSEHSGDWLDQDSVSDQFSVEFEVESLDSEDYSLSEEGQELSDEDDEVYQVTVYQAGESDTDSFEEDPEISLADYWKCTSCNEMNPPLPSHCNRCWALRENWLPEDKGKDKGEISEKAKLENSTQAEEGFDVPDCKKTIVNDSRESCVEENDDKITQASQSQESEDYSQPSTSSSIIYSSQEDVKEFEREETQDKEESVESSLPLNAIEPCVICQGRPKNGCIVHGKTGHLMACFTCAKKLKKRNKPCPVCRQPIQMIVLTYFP

Compared with `C#Cc1ccc(OCC2CCN(C(=O)OC(C)(C)C)CC2)c([C@H]2NC(=O)C[C@@H](c3cccc(Cl)c3)[C@]23C(=O)Nc2cc(Cl)ccc23)c1` (racemic) [Example 2, racemic(2′R,3R,4′S)-2′-[2-(1-(tert-butoxycarbonyl)-4-piperidinylmethoxy)-5-ethynyl-phenyl]-6-chloro-4′-(3-chlorophenyl)spiro[3H-indole-3,3′-piperidine]-2,6′(1H)-dione], `C#Cc1ccc(OC2CCN(C(=O)N(CC)CC)CC2)c([C@H]2NC(=O)C[C@@H](c3cccc(Cl)c3)[C@]23C(=O)Nc2cc(Cl)ccc23)c1` (racemic) [Example 22b, racemic(2′R,3R,4′S)-6-chloro-4′-(3-chlorophenyl)-2′-[2-(1-diethylcarbamoyl-4-piperidinyloxy)-5-ethynyl-phenyl]spiro[3H-indole-3,3′-piperidine]-2,6′(1H)-dione] is 4.9-fold lower in IC50: 0.205 µM for the first, 0.042 µM for the second.

Compared with `CC(=O)Nc1ccc(Oc2ccc(Cl)cc2[C@H]2NC(=O)C[C@@H](c3cccc(Cl)c3)[C@]23C(=O)Nc2cc(Cl)ccc23)cc1` (racemic) [Example 87, racemic(2′R, 3R, 4′S)-2′-[2-(4-acetylamino-phenoxy)-5-chloro-phenyl]-6-chloro-4′-(3-chlorophenyl)spiro[3H-indole-3,3′-piperidine]-2,6′(1H)-dione], `O=C1C[C@@H](c2cccc(Cl)c2)[C@]2(C(=O)Nc3cc(Cl)ccc32)[C@@H](c2cc(Br)ccc2Oc2ccc(C(=O)NCCN3CCCC3)cc2)N1` (racemic) [Example 56, racemic(2′R, 3R, 4′S)-2′-{5-bromo-2-[4-(2-pyrrolidin-1-yl-ethylcarbamoyl)-phenoxy]-phenyl}-6-chloro-4′-(3-chlorophenyl)spiro[3H-indole-3,3′-piperidine]-2,6′(1H)-dione] is 2.7-fold higher in IC50: 0.048 µM for the first, 0.131 µM for the second. The first is the more potent here.

Work on `CC(=O)N1CCC(Oc2ccc(I)cc2[C@H]2NC(=O)[C@@H](c3cccc(Cl)c3)C[C@]23C(=O)Nc2cc(Cl)ccc23)CC1` [Example 5c, chiral(2′R,3R,4′S)-2′-[2-(1-acetyl-4-piperidinyloxy)-5-iodo-phenyl]-6-chloro-4′-(3-chlorophenyl)spiro[3H-indole-3,3′-piperidine]-2,6′(1H)-dione] yielded an IC50 of 0.034 µM.
